The text below walks through data of ChEMBL document CHEMBL4725368, “Novel C-7 carbon substituted fourth generation fluoroquinolones targeting N. Gonorrhoeae infections” (Bioorg Med Chem Lett, 2020).

The inhibition is the share of the control response that was lost under treatment. The IC50 is the concentration needed to halve the response being measured. Higher therefore signals a need for much substance. Usually MIC stands for the least concentration at which growth counts as inhibited. By solubility (kinetic) is commonly meant the concentration staying in solution when a stock, usually in DMSO, is diluted into the medium. In general, pKa refers to the negative logarithm of the acid dissociation constant. High values mean a group that holds its proton tightly, low ones a group that gives up its proton readily. A word on the logD: it is lipophilicity at a set pH, counting ionised and neutral species. Higher therefore signals a more lipophilic compound. As a reminder, the fraction unbound is free concentration divided by total concentration. Read a high fraction unbound as much free substance. As usually defined, the MIC90 is an inhibitory concentration at the 90% level, which refers to growth in some studies and to a panel of isolates in others. The term bioavailability denotes dose-corrected exposure relative to a reference, in per cent.

Targets include Cytochrome P450 2D6 (Homo sapiens, UniProt P10635); Cytochrome P450 2C19 (Homo sapiens, UniProt P33261); Cytochrome P450 2C9 (Homo sapiens, UniProt P11712); Cytochrome P450 3A4 (Homo sapiens, UniProt P08684).
The target of series [1] is T1, hERG (KCNH2) (Homo sapiens, UniProt Q12809). The experiment in a line: Inhibition of human ERG at 30 uM relative to control.
T1 sequence (Q12809 whole entry): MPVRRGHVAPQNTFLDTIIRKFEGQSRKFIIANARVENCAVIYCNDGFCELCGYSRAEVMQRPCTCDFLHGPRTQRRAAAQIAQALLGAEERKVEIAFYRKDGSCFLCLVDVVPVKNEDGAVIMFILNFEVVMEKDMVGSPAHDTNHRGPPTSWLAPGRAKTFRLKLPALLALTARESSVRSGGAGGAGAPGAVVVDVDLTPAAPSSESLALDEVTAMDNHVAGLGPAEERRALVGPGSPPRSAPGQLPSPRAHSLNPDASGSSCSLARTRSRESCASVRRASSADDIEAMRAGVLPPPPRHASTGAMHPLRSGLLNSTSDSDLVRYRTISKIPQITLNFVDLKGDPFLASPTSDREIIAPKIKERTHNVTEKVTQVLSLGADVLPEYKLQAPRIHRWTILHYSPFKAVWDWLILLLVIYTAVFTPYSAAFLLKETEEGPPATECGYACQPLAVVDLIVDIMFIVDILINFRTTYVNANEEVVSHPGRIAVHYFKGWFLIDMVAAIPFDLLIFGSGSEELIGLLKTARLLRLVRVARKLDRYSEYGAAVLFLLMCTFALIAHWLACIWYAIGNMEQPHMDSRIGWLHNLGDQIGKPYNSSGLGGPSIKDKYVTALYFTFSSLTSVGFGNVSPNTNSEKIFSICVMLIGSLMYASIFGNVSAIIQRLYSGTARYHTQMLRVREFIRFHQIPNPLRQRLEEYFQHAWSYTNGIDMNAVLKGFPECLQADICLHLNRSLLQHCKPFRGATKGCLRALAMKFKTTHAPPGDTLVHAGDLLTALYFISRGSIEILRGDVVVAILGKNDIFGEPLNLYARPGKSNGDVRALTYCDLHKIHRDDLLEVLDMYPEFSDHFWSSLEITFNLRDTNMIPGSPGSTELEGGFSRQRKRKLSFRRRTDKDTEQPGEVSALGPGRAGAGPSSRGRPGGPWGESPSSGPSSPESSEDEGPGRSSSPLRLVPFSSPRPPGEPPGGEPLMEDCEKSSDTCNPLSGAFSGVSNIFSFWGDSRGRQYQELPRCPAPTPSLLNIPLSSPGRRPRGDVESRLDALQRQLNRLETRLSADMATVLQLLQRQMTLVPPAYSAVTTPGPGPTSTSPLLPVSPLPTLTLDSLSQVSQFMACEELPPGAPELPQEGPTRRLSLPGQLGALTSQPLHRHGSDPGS
The nature of series [2]: Intrinsic clearance in human liver microsomes. The format is ADME, Microsome. The following applies: read-out: CLH. On the technique in general: Liver microsomes are vesicles of endoplasmic reticulum, rich in cytochrome P450 enzymes.
For series [3], the system named is Neisseria gonorrhoeae. The experiment in a line: Antibacterial activity against Neisseria gonorrhoeae ATCC 49226 assessed as reduction in bacterial growth by CLSI protocol based microdilution method. The format is functional. For orientation: In broth dilution the organism is exposed to a series of concentrations in liquid medium.
For the next series, the system named is Klebsiella pneumoniae. Description: Antibacterial activity against Klebsiella pneumoniae ATCC 700603 assessed as reduction in bacterial growth by CLSI protocol based microdilution method. In kind it is functional.
Series [4] can be described thus: physchem.
Description: Kinetic solubility of the compound
For another series, the system named is Pseudomonas aeruginosa. Description: Antibacterial activity against Pseudomonas aeruginosa PAO1 assessed as reduction in bacterial growth by CLSI protocol based microdilution method. In kind it is functional.
A short description of series [5]: Acid dissociation constant, pKa of the compound. The format is physicochemical.
A further series concerns Enterococcus faecalis. The experiment in a line: Antibacterial activity against Enterococcus faecalis ATCC 29212 assessed as reduction in bacterial growth by CLSI protocol based microdilution method. The format is functional.
Another series concerns Escherichia coli. The experiment in a line: Antibacterial activity against Escherichia coli ATCC 25922 assessed as reduction in bacterial growth by CLSI protocol based microdilution method. The format is functional.
Series [6] is described as follows: physchem. The settings on record: octanol/water, pH 7.4.
Description: Distribution coefficient, logD of the compound at pH 7.4
Another series relates to Acinetobacter baumannii. The experiment in a line: Antibacterial activity against Acinetobacter baumannii ATCC 19606 assessed as reduction in bacterial growth by CLSI protocol based microdilution method. The format is functional. The settings on record: ATCC 19606 = CIP 70.34 = JCM 6841.
A short description of series [7]: Intrinsic clearance in human hepatocytes assessed per 10^6 cells. The format is ADME, cell-based, Hepatocyte. The following applies: read-out: CLH.
The target of a further series is T2, Cytochrome P450 1A2 (Homo sapiens, UniProt P05177).
T2 sequence (P05177 whole entry): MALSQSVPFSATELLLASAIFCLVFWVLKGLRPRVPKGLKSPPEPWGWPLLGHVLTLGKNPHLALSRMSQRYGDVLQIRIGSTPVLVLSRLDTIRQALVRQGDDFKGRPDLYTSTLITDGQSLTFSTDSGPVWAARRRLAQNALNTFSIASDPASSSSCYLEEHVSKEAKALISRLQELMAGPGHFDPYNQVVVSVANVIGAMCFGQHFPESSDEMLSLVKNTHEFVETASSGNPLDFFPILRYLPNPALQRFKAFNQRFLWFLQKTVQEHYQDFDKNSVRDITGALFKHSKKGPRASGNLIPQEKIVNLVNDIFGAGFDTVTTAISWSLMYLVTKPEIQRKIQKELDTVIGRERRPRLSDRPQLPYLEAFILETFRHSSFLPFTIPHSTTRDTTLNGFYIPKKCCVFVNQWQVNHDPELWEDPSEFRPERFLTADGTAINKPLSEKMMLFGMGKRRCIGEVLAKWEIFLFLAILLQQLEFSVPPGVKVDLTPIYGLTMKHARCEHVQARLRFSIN

The subject of another series is Staphylococcus aureus. Description: Antibacterial activity against Staphylococcus aureus ATCC 29213 assessed as reduction in bacterial growth by CLSI protocol based microdilution method. In kind it is functional.
A further series is described as follows: in vitro. The following applies: human, plasma.
Series [8] concerns Neisseria gonorrhoeae. Description: Antibacterial activity against fluoroquinolone-resistant Neisseria gonorrhoeae WHO L harboring multiple point mutations at DNA gyrase and topoisomerase IV and porB1b mutation assessed as reduction in bacterial growth by CLSI protocol based microdilution method. The format is functional.
Series [9] has as its target T1, hERG (KCNH2). The experiment in a line: Inhibition of human ERG at 100 uM relative to control.
The subject of series [10] is Neisseria gonorrhoeae. The experiment in a line: Antibacterial activity against Neisseria gonorrhoeae assessed as reduction in bacterial growth. The format is functional.
A short description of series [11]: Oral bioavailability in human at 450 mg measured every 12 hrs. In kind it is ADME, organism-based. The following applies: in vivo.
The target in series [12] is Voltage-gated inwardly rectifying potassium channel KCNH2 (Homo sapiens, UniProt Q12809). The experiment in a line: Inhibition of human ERG up to 185 uM.
Sequence of Voltage-gated inwardly rectifying potassium channel KCNH2 (Q12809 whole entry): as the sequence (Q12809 whole entry) above
Series [13] in a line: Oral bioavailability in human at 400 mg measured every 12 hrs. The settings on record: in vivo. The format is ADME, organism-based.

≈ marks a conversion by molar mass, not a printed value.

Sequence of Cytochrome P450 2D6 (P10635 whole entry): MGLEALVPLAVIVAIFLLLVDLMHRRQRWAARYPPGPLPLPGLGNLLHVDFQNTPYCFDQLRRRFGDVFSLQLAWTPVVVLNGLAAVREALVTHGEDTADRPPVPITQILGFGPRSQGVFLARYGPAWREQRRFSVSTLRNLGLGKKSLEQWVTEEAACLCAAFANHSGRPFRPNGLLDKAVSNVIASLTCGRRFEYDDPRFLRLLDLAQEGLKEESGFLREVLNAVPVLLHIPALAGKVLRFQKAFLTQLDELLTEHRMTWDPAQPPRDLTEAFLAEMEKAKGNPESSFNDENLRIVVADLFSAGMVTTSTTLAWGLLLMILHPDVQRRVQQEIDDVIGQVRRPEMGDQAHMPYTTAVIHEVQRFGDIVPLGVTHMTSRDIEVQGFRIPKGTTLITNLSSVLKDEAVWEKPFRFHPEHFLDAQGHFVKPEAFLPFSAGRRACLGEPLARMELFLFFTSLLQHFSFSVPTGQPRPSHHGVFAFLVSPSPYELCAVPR
Sequence of Cytochrome P450 3A4 (P08684 whole entry): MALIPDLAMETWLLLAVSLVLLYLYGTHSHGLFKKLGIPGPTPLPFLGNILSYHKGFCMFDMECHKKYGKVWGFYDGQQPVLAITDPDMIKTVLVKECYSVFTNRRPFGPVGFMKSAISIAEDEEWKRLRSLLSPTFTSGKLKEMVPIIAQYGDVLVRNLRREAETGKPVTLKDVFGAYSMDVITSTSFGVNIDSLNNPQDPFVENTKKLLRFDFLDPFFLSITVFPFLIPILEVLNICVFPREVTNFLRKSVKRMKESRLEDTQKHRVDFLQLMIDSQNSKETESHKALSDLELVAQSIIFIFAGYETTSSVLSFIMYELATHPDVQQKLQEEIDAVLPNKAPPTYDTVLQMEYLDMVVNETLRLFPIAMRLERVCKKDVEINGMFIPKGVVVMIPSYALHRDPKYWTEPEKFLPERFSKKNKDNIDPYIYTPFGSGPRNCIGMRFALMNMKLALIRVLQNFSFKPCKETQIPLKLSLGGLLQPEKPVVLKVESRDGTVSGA
Sequence of Cytochrome P450 2C9 (P11712 whole entry): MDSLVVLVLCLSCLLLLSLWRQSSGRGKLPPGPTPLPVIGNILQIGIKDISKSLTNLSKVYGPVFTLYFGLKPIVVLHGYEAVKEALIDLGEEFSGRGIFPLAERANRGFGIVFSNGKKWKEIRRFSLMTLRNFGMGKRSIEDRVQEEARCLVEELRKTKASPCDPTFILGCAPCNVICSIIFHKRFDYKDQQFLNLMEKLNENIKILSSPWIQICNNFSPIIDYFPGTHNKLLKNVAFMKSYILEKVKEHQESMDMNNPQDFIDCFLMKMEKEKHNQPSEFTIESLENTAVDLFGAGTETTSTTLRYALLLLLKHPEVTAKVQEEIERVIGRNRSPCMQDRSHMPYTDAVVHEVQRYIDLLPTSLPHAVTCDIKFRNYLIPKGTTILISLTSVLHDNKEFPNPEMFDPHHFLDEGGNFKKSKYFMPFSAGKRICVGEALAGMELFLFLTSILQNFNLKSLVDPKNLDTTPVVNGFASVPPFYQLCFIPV
Sequence of Cytochrome P450 2C19 (P33261 whole entry): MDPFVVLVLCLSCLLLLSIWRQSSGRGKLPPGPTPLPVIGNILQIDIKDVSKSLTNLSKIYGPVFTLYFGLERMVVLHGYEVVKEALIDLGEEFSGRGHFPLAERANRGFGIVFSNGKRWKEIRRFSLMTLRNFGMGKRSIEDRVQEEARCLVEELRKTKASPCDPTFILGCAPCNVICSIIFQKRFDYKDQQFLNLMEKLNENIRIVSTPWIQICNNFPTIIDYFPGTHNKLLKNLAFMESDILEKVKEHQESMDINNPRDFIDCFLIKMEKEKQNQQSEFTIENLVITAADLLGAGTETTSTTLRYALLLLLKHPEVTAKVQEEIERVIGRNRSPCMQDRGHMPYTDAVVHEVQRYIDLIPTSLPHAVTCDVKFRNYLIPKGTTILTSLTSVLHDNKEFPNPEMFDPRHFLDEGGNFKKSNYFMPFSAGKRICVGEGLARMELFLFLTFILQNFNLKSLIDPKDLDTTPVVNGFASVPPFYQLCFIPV
Description for Cytochrome P450 1A2: Inhibition of CYP1A2 (unknown origin)
Description for Cytochrome P450 2C19: Inhibition of CYP2C19 (unknown origin)
Description for Cytochrome P450 2C9: Inhibition of CYP2C9 (unknown origin)
Description for Cytochrome P450 2D6: Inhibition of CYP2D6 (unknown origin)
Description for Cytochrome P450 3A4: Inhibition of CYP3A4 (unknown origin)
Description for in vitro: Protein binding in human plasma assessed as free fraction

Compound `Nc1nc(-n2cc(C(=O)O)c(=O)c3cc(F)c(N4CC(N)C4)c(Cl)c32)c(F)cc1F` registered an inhibition at 30 µM against hERG (KCNH2) [1] of 6%. In addition, the half-maximal inhibitory concentration (IC50) against Cytochrome P450 2D6 was more than 50 µM; against Cytochrome P450 2C19, more than 50 µM; against Cytochrome P450 1A2, more than 50 µM; against Cytochrome P450 2C9, 12.7 µM; against Cytochrome P450 3A4, 13.6 µM. For the same compound, in series [2], the microsomal CLint is less than 5 µL/min/mg. The MIC with Neisseria gonorrhoeae [3] was 0.007 µg/mL (≈ 0.0159 µM); in the series on Klebsiella pneumoniae, 0.25 µg/mL (≈ 0.568 µM); in the series with Pseudomonas aeruginosa it was 0.12 µg/mL (≈ 0.273 µM); in the series with Enterococcus faecalis, 0.12 µg/mL (≈ 0.273 µM); in the series with Escherichia coli it was 0.001 µg/mL (≈ 0.00227 µM); in the series with Acinetobacter baumannii it was 2 µg/mL (≈ 4.55 µM). For the same compound, the MIC amounted to 0.003 µg/mL (≈ 0.00682 µM) in the series on Staphylococcus aureus and 0.06 µg/mL (≈ 0.136 µM) in the series with Neisseria gonorrhoeae [8]. In addition, the solubility (kinetic) in “physchem [4]” came out at 3.6 µM (≈ 1.58 µg/mL). In series [5], this compound showed a pKa of 5.33. For the same compound, in the series “physchem [6]”, the logD is -0.3. Also, the hepatocyte CLint in series [7] turned out to be 3 µL/min/1e6 cells. Further, the fraction unbound in the series “in vitro” was found to be 0.297.

Regarding `Nc1nc(-n2cc(C(=O)O)c(=O)c3cc(F)c([C@H]4C[C@H](O)C4)c(Cl)c32)c(F)cc1F`, the IC50 against Cytochrome P450 2D6 was more than 50 µM; on Cytochrome P450 2C19, more than 50 µM; on Cytochrome P450 1A2, more than 50 µM; against Cytochrome P450 2C9, 41.7 µM; against Cytochrome P450 3A4, more than 50 µM. Further, the microsomal CLint in series [2] was less than 5 µL/min/mg. In addition, the MIC was found to be 0.01 µg/mL (≈ 0.0227 µM) with Neisseria gonorrhoeae [3]; 8 µg/mL (≈ 18.2 µM) in the series with Klebsiella pneumoniae; 2 µg/mL (≈ 4.55 µM) in the series on Pseudomonas aeruginosa; 0.5 µg/mL (≈ 1.14 µM) in the series on Enterococcus faecalis; 0.12 µg/mL (≈ 0.273 µM) in the series on Escherichia coli; 64 µg/mL (≈ 146 µM) in the series on Acinetobacter baumannii. Besides, the MIC in the series with Staphylococcus aureus came out at 0.03 µg/mL (≈ 0.0682 µM); with Neisseria gonorrhoeae [8] it was 0.12 µg/mL (≈ 0.273 µM). The compound further returned a kinetic solubility in the series “physchem [4]” of 59.3 µM (≈ 26.1 µg/mL). The pKa in series [5] is 5.04. For the same compound, the logD in the series “physchem [6]” came out at 0.3. Also, the hepatocyte CLint in series [7] was determined as 6.8 µL/min/1e6 cells. Moreover, on hERG (KCNH2) [9], the inhibition at 100 µM was 18%. The compound further came in with a fraction unbound in the series “in vitro” of 0.105.

Take `Nc1nc(-n2cc(C(=O)O)c(=O)c3cc(F)c([C@H]4C[C@@H](O)C4)c(Cl)c32)c(F)cc1F`: the IC50 against Cytochrome P450 2D6 was more than 50 µM; on Cytochrome P450 2C19, more than 50 µM; against Cytochrome P450 1A2, more than 50 µM; against Cytochrome P450 2C9, more than 50 µM; at Cytochrome P450 3A4, 24.8 µM. In series [2], the microsomal CLint was less than 5 µL/min/mg. The minimal inhibitory concentration (MIC) with Neisseria gonorrhoeae [3] is 0.06 µg/mL (≈ 0.136 µM); with Klebsiella pneumoniae it was 4 µg/mL (≈ 9.1 µM); in the series on Pseudomonas aeruginosa, 4 µg/mL (≈ 9.1 µM); with Enterococcus faecalis, 0.25 µg/mL (≈ 0.568 µM); in the series on Escherichia coli, 0.12 µg/mL (≈ 0.273 µM); in the series with Acinetobacter baumannii, 16 µg/mL (≈ 36.4 µM). Moreover, the MIC was 0.03 µg/mL (≈ 0.0682 µM) in the series with Staphylococcus aureus and 0.12 µg/mL (≈ 0.273 µM) with Neisseria gonorrhoeae [8]. Also, in “physchem [4]”, the kinetic solubility stood at 44.8 µM (≈ 19.7 µg/mL). The compound also had a pKa in [5] of 4.96. The compound also gave a logD in the series “physchem [6]” of 0.3. The hepatocyte CLint in series [7] worked out at 9.2 µL/min/1e6 cells. This compound also displayed an inhibition at 100 µM on hERG (KCNH2) [9] of 15%. In “in vitro”, this compound yielded a free fraction (fraction unbound) of 0.124.

Take `Nc1nc(-n2cc(C(=O)O)c(=O)c3cc(F)c(N4CC(O)C4)c(Cl)c32)c(F)cc1F` [DELAFLOXACIN]: the IC50 against Cytochrome P450 2D6, against Cytochrome P450 2C19, against Cytochrome P450 1A2 and against Cytochrome P450 2C9 was more than 50 µM throughout. Besides, the microsomal CLint in [2] is less than 5 µL/min/mg. The MIC with Neisseria gonorrhoeae [3] was 0.06 µg/mL (≈ 0.136 µM); in the series with Klebsiella pneumoniae, 0.25 µg/mL (≈ 0.567 µM); with Pseudomonas aeruginosa, 1 µg/mL (≈ 2.27 µM); with Enterococcus faecalis, 0.03 µg/mL (≈ 0.0681 µM); with Escherichia coli it was 0.01 µg/mL (≈ 0.0227 µM); in the series on Neisseria gonorrhoeae [10], not below 0.008 µg/mL. For the same compound, the minimal inhibitory concentration (MIC) was 8 µg/mL (≈ 18.2 µM) in the series on Acinetobacter baumannii, 0.003 µg/mL (≈ 0.00681 µM) with Staphylococcus aureus and 0.03 µg/mL (≈ 0.0681 µM) in the series with Neisseria gonorrhoeae [8]. This compound came in with a kinetic solubility in the series “physchem [4]” of 58.1 µM (≈ 25.6 µg/mL). The compound also had a pKa in series [5] of 5.47. The MIC90 with Neisseria gonorrhoeae [10] was 0.125 µg/mL (≈ 0.284 µM). Besides, in “physchem [6]”, the logD stood at 0.7. Besides, the bioavailability in series [11] was 59%. The “inhibition (INH)” value in [12] was “Not Active”. Moreover, in series [7], the hepatocyte CLint was determined as 3 µL/min/1e6 cells. In addition, the inhibition at 100 µM at hERG (KCNH2) [9] was found to be 19%. In the series “in vitro”, the fraction unbound was determined as 0.149.

`COc1c(N2C[C@@H]3CCCN[C@@H]3C2)c(F)cc2c(=O)c(C(=O)O)cn(C3CC3)c12` [MOXIFLOXACIN]: the bioavailability in series [13] amounted to 92%.
